SMILES strings stand for the structures. Read-outs that look alike come from different tables or passages of the source.

The subject of one series is HIV-1LAl. In words: Anti-HIV (in PBM cells) assay, reverse transcriptase readout. Format: cell-based. As for the experimental part: Anti-HIV-1 activity of the compounds was determined in human peripheral blood mononuclear (PBM) cells as described previously (Schinazi […]., Cannon D., Mathis R., Lloyd R. M. Jr., […]., St. Clair M., Wilson J., Furman P. A., Painter G., Choi […]. Antimicrob. Agents Chemother. 1992, 36, 2423; Schinazi […]., Cannon D., Xie […]., Smith G., Hahn E. Antimicrob. Agents Chemother. 1990, 34, 1061). Stock solutions ([…]) of the compounds were prepared in sterile DMSO and then diluted to the desired concentration in growth medium. […] Virus obtained from the cell supernatant was quantified on day 6 after infection by a reverse transcriptase assay using (rA)n.(dT)12.18 as template-primer. […] AZT was included as positive control. The antiviral EC50 and EC90 were obtained from the concentration-response curve using the median effective method described previously (Chou […]. Enzyme Regul. 1984, 22, 27-55; Belen'kii M. S. & Schinazi R. F. Antiviral Res. 1994, 25, 1-11).

The subject of another series is HIV-1RF. In words: Anti-HIV (in MT-2 cells) assay, viral RNA accumulation. The series is classed as cell-based. Particulars: EC90, MT-2 cells, read-out: Anti-HIV-1 activity in different cells (EC90, μM) MT-2. As for the experimental part:
(§1) In a second antiviral testing system, the potency of the compounds was determined by measurement of viral RNA accumulation in HIV-1RF infected MT-2 cells (Bacheler L T, Paul M, Otto M J, Jadhav P K, Stone B A & Miller J A (1994) An assay for HIV RNIn infected cell lysates, and its use for rapid evaluation of antiviral efficacy. Antivir. Chem. Chemother. 5:111–121). The virus titer was established to determine the dilution producing 15 to 30 ng/RNA per well of HIV RNIn 3 days of infection. HIV-1 RNA was quantified using biotinylated capture and alkaline phosphatase-derivatized reporter oligonucleotides as described previously (Charvet A-S, Camplo M, Faury P, Graciet J C, Mourier N, Chermann J C & Kraus J L (1994) Inhibition of human immunodeficiency virus type 1 replication by phosphonoformate- and phosphonoacetate-2′,3′-dideoxy-3′-thiacytidine conjugates. J. Med. Chem. 37:2216–2223). In a third system, the effect of analogs on the replication of HIV-1NL4-3 was determined via the InterCompany Consortium consensus p24 assay as previously described (Jadhav P K & MacKay M F (1997) Cyclic urea amide: HIV-1 protease inhibitors with low nanomolar potency against both wild types and protease inhibitor resistant mutants of HIV. J. Med. Chem. 40:181–190). Recombinant viruses were recovered by transfecting the appropriate NL4-3 plasmid by lipofection. Virus stocks recovered 7 to 10 days post-transfection were titered on MT-4 cells to determine if the dilution produced 1,000 to 3,000 ng p24 in 4 days. This dilution was then used in drug susceptibility assays, where drug was added 24 h post infection of cells, and p24 quantified by ELISA 3 days later.

A further series deals with HIV-1NL4-3. In words: Anti-HIV assay in MT-4 cells, consensus p24 assay. Format: cell-based. Conditions: Human immunodeficiency virus 1, MT4, Table 1, read-out: Anti-HIV-1 activity in different cells (EC90, μM) MT-4. As for the experimental part:
as §1

Series [1] in a line: Cytotoxicity assay in PBM cells. The series is classed as cell-based, human. Particulars: human, human PBM cells, Table 1, read-out: Cytotoxicity in different cells (IC50, μM) PBM. As for the experimental part: (§2) The toxicity of the compounds was assessed in Vero, human PBM, CEM (human lymphoblastoid), MT-2, and HepG2 cells, as described previously (Schinazi […]., Cannon D. L., Xie […]., Smith […]. […] Cycloheximide was included as positive cytotoxic control, and untreated cells exposed to solvent were included as negative controls. The cytotoxicity IC50 was obtained from the concentration-response curve using the median effective method described previously (Chou […]. […] Belen'kii M. S. & Schinazi R. F.

Series [2] is described as follows: Cytotoxicity assay in CEM cells. The series is classed as cell-based, human. Conditions: human, CEM lymphoblastoid cells, Table 1, read-out: Cytotoxicity in different cells (IC50, μM) CEM. How it is done:
as §2

Series [3] in a line: Cytotoxicity assay in Vero cells. Format: cell-based. Particulars: African green monkey, Table 1, read-out: Cytotoxicity in different cells (IC50, μM) Vero. As for the experimental part: as §2
Series [4] is described as follows: Cytotoxicity assay in MT-2 cells. Particulars: human, Table 1, read-out: Cytotoxicity in different cells (IC50, μM) MT-2. Format: cell-based. How it is done: as §2
The nature of series [5]: Cytotoxicity assay in HepG2 cells. Format: cell-based. Conditions: human, Table 1, read-out: Cytotoxicity in different cells (IC50, μM) HepG2. As for the experimental part: as §2
The test system of another series is human PBM cells. In words: Cytotoxicity assay in PBM cells. Conditions: Table 2, read-out: Cytotoxicity in different cells (IC50, μM) PBM. The series is classed as cell-based. As for the experimental part:
as §2

Series [6] deals with CEM (human lymphoblastoid) cells. In words: Cytotoxicity assay in CEM cells. The series is classed as cell-based. Conditions: Table 2, read-out: Cytotoxicity in different cells (IC50, μM) CEM. How it is done: as §2
The subject of another series is Vero cells. In words: Cytotoxicity assay in Vero cells. Particulars: Table 2, read-out: Cytotoxicity in different cells (IC50, μM) Vero. Format: cell-based. How it is done:
as §2

Another series deals with MT-2 cells. In words: Cytotoxicity assay in MT-2 cells. The series is classed as cell-based. Conditions: Table 2, read-out: Cytotoxicity in different cells (IC50, μM) MT-2. How it is done:
as §2

Another series has as its system HepG2 cells. In words: Cytotoxicity assay in HepG2 cells. Format: cell-based. Conditions: Table 2, read-out: Cytotoxicity in different cells (IC50, μM) HepG2. How it is done: as §2
Where [7] appears, read: Human immunodeficiency virus 1, PBMC, Table 1, read-out: Anti-HIV-1 activity in different cells (EC90, μM) PBM.
[8] abbreviates: Human immunodeficiency virus 1, MT2, Table 1.
The mark [9] stands for this setting: Table 2, read-out: Anti-HIV-1 activity in different cells (EC90, μM) PBM.

Consider `O=C(Nc1nc(=O)n([C@H]2CC[C@@H](CO)O2)cc1F)c1ccc(I)cc1` [Compound 10, β-D-2′,3′-Dideoxy-5-fluoro-N^4-(4-iodobenzoyl)cytidine], for which the EC90 – broadly, the point of the concentration-response curve where the effect stands at 90% – in the series with HIV-1LAl (setting [7]) amounted to 0.019 µM; in the series with HIV-1RF (setting [8]) it was 0.025 µM; in the series with HIV-1NL4-3 it was 0.17 µM. In addition, the IC50 – broadly, the midpoint of a concentration-inhibition curve – in series [1] is greater than 100 µM; in series [2] it was greater than 100 µM; in series [3] it was greater than 100 µM; in series [4], greater than 50 µM; in series [5], greater than 100 µM.

In the case of `O=C(Nc1nc(=O)n([C@H]2CC[C@@H](CO)O2)cc1F)c1ccc(F)cc1` [Compound 11, β-D-2′,3′-Dideoxy-5-fluoro-N^4-(4-fluorobenzoyl)cytidine], the EC90 was found to be 0.027 µM in the series on HIV-1LAl (setting [7]), 0.32 µM with HIV-1RF (setting [8]) and 0.61 µM in the series with HIV-1NL4-3. The IC50 is greater than 100 µM in [1]; 45.7 µM in series [2]; greater than 100 µM in [3]; greater than 50 µM in series [4]; greater than 100 µM in [5].

In the case of `O=C(Nc1nc(=O)n([C@H]2CC[C@@H](CO)O2)cc1F)c1ccc(Cl)cc1` [Compound 12, β-D-N^4-(4-chlororobenzoyl)-2′,3′-dideoxy-5-fluorocytidine], the EC90 in the series on HIV-1LAl (setting [7]) worked out at 0.02 µM; in the series with HIV-1RF (setting [8]) it was 0.22 µM; in the series with HIV-1NL4-3, 0.37 µM. Further, the IC50 in [1] is greater than 100 µM; in series [2], 33.4 µM; in series [3] it was greater than 100 µM; in [4], greater than 50 µM; in series [5], 7.3 µM.

For `O=C(Nc1nc(=O)n([C@H]2CC[C@@H](CO)O2)cc1F)c1ccc(Br)cc1` [Compound 13, β-D-N^4-(4-bromobenzoyl)-2′,3′-dideoxy-5-fluorocytidine], the EC90 came out at 0.03 µM in the series with HIV-1LAl (setting [7]), 0.14 µM in the series with HIV-1RF (setting [8]) and 0.3 µM with HIV-1NL4-3. In addition, the IC50 in [1] was greater than 100 µM; in [2], 31.6 µM; in [3], greater than 100 µM; in series [4], greater than 50 µM; in series [5], greater than 100 µM.

`O=C(Nc1nc(=O)n([C@H]2CC[C@@H](CO)O2)cc1F)c1cccc(F)c1` [Compound 14, β-D-2′,3′-Dideoxy-5-fluoro-M-(3-fluorobenzoyl)cytidine]: the values for the EC90 in the series with HIV-1LAl (setting [7]), with HIV-1RF (setting [8]) and in the series with HIV-1NL4-3 were 0.106 µM, 0.46 µM and 0.43 µM, respectively. Moreover, the IC50 in [1] is greater than 100 µM; in series [2] it was 80.8 µM; in [3] it was greater than 100 µM; in series [4], greater than 50 µM; in [5], greater than 100 µM.

Turning to `O=C(Nc1nc(=O)n([C@H]2CC[C@@H](CO)O2)cc1F)c1cccc(Cl)c1` [Compound 15, β-D-N^4-(3-Chlorobenzoyl)-2′,3′-dideoxy-5-fluorocytidine], the EC90 in the series on HIV-1LAl (setting [7]) is 0.08 µM; in the series on HIV-1RF (setting [8]) it was 0.4 µM; with HIV-1NL4-3, 0.51 µM. In addition, the IC50 is greater than 100 µM in [1]; 68.1 µM in [2]; 91.6 µM in series [3]; greater than 50 µM in [4]; greater than 100 µM in series [5].

Take `COc1ccccc1C(=O)Nc1nc(=O)n([C@H]2C=C[C@@H](CO)O2)cc1F` [Compound 44, β-D-N^4-o-Anisoyl-2,3′-didehydro-2,3-dideoxy-5-fluorocytidine]: the EC90 is 14.6 µM with HIV-1LAl (setting [9]) and greater than 50 µM in the series on HIV-1RF (Table 2). Moreover, the IC50 in the series with human PBM cells was 13.1 µM; in [6] it was 3.9 µM; in the series on Vero cells, 5.6 µM; in the series with MT-2 cells it was greater than 50 µM; in the series with HepG2 cells, 3.4 µM.

As to `O=C(Nc1nc(=O)n([C@H]2C=C[C@@H](CO)O2)cc1F)c1ccc([N+](=O)[O-])cc1` [Compound 45, β-D-2′,3′-Didehydro-2′,3′-dideoxy-5-fluoro-N^4-(4-nitrobenzoyl)cytidine], the figures for the EC90 with HIV-1LAl (setting [9]) and in the series on HIV-1RF (Table 2) were 1.7 µM and 0.29 µM, respectively. Besides, the IC50 was 3.4 µM in the series on human PBM cells; 4.2 µM in [6]; 6.6 µM in the series on Vero cells; greater than 50 µM in the series on MT-2 cells; 5.6 µM with HepG2 cells.

Consider `O=C(Nc1nc(=O)n([C@H]2C=C[C@@H](CO)O2)cc1F)c1ccccc1[N+](=O)[O-]` [Compound 47, β-D-2′,3′-Didehydro-2′,3′-dideoxy-5-fluoro-N^4-(2-nitrobenzoyl)cytidine], for which the EC90 in the series with HIV-1LAl (setting [9]) is 39.9 µM; in the series on HIV-1RF (Table 2) it was greater than 50 µM. The IC50 is 80 µM in the series with human PBM cells; greater than 100 µM in series [6]; greater than 100 µM in the series on Vero cells; greater than 50 µM with MT-2 cells; greater than 100 µM in the series on HepG2 cells.

Regarding `Cc1ccccc1C(=O)Nc1nc(=O)n([C@H]2C=C[C@@H](CO)O2)cc1F` [Compound 50, β-D-2′,3′-Didehydro-2′,3′-dideoxy-5-fluoro-N^4-o-toluoylcytidine], the EC90 in the series with HIV-1LAl (setting [9]) was 56.8 µM; in the series on HIV-1RF (Table 2), greater than 50 µM. In addition, the IC50 in the series on human PBM cells is 58.4 µM; in [6] it was 46.4 µM; in the series on Vero cells it was greater than 100 µM; with MT-2 cells, greater than 50 µM; with HepG2 cells it was greater than 100 µM.

Turning to `O=C(Nc1nc(=O)n([C@H]2C=C[C@@H](CO)O2)cc1F)c1cccs1` [Compound 54, β-D-2′,3′-Didehydro-2′,3′-dideoxy-5-fluoro-N^4-(2-thiophenecarbonyl)cytidine], the values for the EC90 in the series on HIV-1LAl (setting [9]) and with HIV-1RF (Table 2) were 1.6 µM and 1.5 µM, respectively. For the same compound, the IC50 was 10.2 µM in the series with human PBM cells; 3.9 µM in series [6]; 4.8 µM in the series on Vero cells; greater than 50 µM with MT-2 cells; 2.3 µM with HepG2 cells.

Regarding `O=C(Nc1nc(=O)n([C@H]2C=C[C@@H](CO)O2)cc1F)c1cccnc1` [Compound 55, β-D-2, 3′-Didehydro-2′,3′-dideoxy-5-fluoro-N^4-nicotinoylcytidine], the EC90 came to 42.3 µM in the series with HIV-1LAl (setting [9]) and 29 µM in the series on HIV-1RF (Table 2). Further, the IC50 with human PBM cells was 13.8 µM; in [6], 6.7 µM; in the series on Vero cells, 13.1 µM; with MT-2 cells, greater than 50 µM; in the series with HepG2 cells it was 10.3 µM.

As for `O=C(Nc1nc(=O)n([C@H]2C=C[C@@H](CO)O2)cc1F)c1cc2ccccc2s1` [Compound 56, β-D-2′,3′-Didehydro-2′,3′-dideoxy-5-fluoro-N-(benzo[b]thiophene-2-carbonyl)cytidine], the EC90 with HIV-1LAl (setting [9]) was 0.29 µM; in the series on HIV-1RF (Table 2), 0.3 µM. Further, the IC50 was 2.2 µM with human PBM cells; 2.8 µM in series [6]; 5.6 µM in the series with Vero cells; greater than 50 µM in the series with MT-2 cells; 1.3 µM in the series on HepG2 cells.

For the origin of these results see US7105527B2, “N4-acylcytosine nucleosides for treatment of viral infections” (priority 2001, dated 2006).
